# Source: patent publication US20220332720A1, “BICYCLIC AGONISTS OF STIMULATOR OF INTERFERON GENES STING” (The Scripps Research Institute, priority 2019, published 2022)
# Tested on: THP-1 Lucia ISG cells
# Assay: ISG-LUC activation assay (ISRE-luciferase assay)
# Assay type: cell-based
# Conditions: Homo sapiens, THP1-Lucia ISG; THP-1 Lucia ISG reporter cells, 24 hours; score based upon potency and efficacy relative to reference compound; read-out: ISG-LUC activation assay score
# From the text: We have established a robust platform for identifying non-nucleotide small molecule STING agonists. his has been established using a primary assay involving a human THP-1 cell line carrying an IRF-inducible reporter with 5 copies of the IFN signaling response element. Counter screens, involving alternative reporter constructs, rodent cell-based assays, as well as cGAS and STING knock-out cell lines, are used to eliminate luciferase artifacts and ensure human-rodent cross species reactivity, as well as pathway selectivity. Biochemical assays, involving cGAS enzymatic activity and STING protein binding assays, are used to identify the specific target of identified hits.
# Tissue culture. Wild-type (cat. no. thpl-isg) and STING KO (cat. no. thpd-kostg) THP-1-Lucia ISG cells were purchased from Invivogen and maintained in growth media consisting of RPMI 1640, 2mM L-glutamine, […], 10% heat-inactivated fetal bovine serum (FBS), 1,000 units/ml penicillin, 1,000 μg/ml streptomycin, 0.25 μg/ml Amphotericin B, and 100 μg/ml zeocin unless otherwise stated.
# ISRE-luciferase assay. THP-1 Lucia ISG cells were resuspended in low-serum growth media (2% FBS) at a density of 5×10^5 cells/ml and treated with test article or vehicle (DMSO). 50 μL of cells were seeded into each well of a 384-well white greiner plates and incubated for 24 hours. To evaluate expression of the luciferase reporter, 30 μl of Quanti-luc (Invivogen) detection reagent was added to each well and luminescence was read using an Envision plate reader (Perkin Elmer) set with an integration time of 0.1 seconds.
row,EC50 [nM],SMILES
1,> 20000,C#Cc1cc(NC(=O)c2ccn3c(S(C)(=O)=O)nnc3n2)c(C(=O)O)cc1F [Compound 62]
2,> 20000,C#Cc1cc(NC(=O)c2ccn3c([S+](C)[O-])nnc3n2)c(C(=O)O)cc1F (stereo not drawn) [Compound 63]
3,< 900,C=Cc1ccc(C(=O)OC)c(NC(=O)c2cc(N)c3nnnn3n2)c1 [Compound 64]
4,< 900,COC(=O)c1cc(Cl)c(Cl)cc1NC(=O)c1nn2nnnc2cc1N [Compound 65]
5,< 900,C=C(F)c1ccc(C(=O)O)c(NC(=O)c2cc(N)c3nnnn3n2)c1 [Compound 66]
6,< 900,COC(=O)c1cc(F)c(OC)cc1NC(=O)c1cc(N)c2nnnn2n1 [Compound 67]
7,< 900,COC(=O)c1cc(F)c(F)cc1NC(=O)c1cc2[nH]cnc2cn1 [Compound 69]
8,> 1000,C#Cc1cc(NC(=O)c2cc(NC(=O)OC(C)(C)C)c3nnnn3n2)c(C(=O)OC)cc1F [Compound 70]
9,> 1000,COC(=O)c1cc(F)c(F)cc1NC(=O)c1ccc2nnnn2n1 [Compound 71]
10,> 1000,COc1cc(NC(=O)c2cc(N)c3nnnn3n2)c(C(=O)O)cc1F [Compound 73]
11,< 3000,Nc1cc2nnnn2nc1C(=O)Nc1cc(Cl)c(Cl)cc1C(=O)O [Compound 74]
12,> 1000,COC(=O)c1cc(F)c(F)cc1NC(=O)c1ccn2c(C#N)cnc2n1 [Compound 75]
13,> 1000,COC(=O)c1cc(F)c(F)cc1NC(=O)N1CCn2cncc2C1 [Compound 76]
14,> 1000,COC(=O)c1cc(Cl)c(Cl)cc1NC(=O)c1nc2nc(O)ccn2n1 [Compound 77]
15,> 1000,O=C(Nc1cc(F)c(F)cc1C(=O)O)c1cc2[nH]cnc2cn1 [Compound 78]
16,> 1000,COC(=O)c1cc(F)c(OC)cc1NC(=O)c1cc(NC(=O)OC(C)(C)C)c2nnnn2n1 [Compound 79]
17,> 1000,COC(=O)c1cc(F)c(F)cc1NC(=O)c1nc2cnccn2n1 [Compound 80]
18,> 1000,COc1ccc(C(=O)O)c(NC(=O)c2cc(N)c3nnnn3n2)c1 [Compound 81]
19,> 1000,Nc1cc(C(=O)Nc2cc(Cl)c(Cl)cc2C(=O)O)nn2nnnc12 [Compound 82]
20,< 900,Nc1cc(C(=O)Nc2cc(Cl)c(F)cc2C(=O)O)nn2nnnc12 [Compound 83]
21,> 1000,COc1cc(NC(=O)c2cc(N)c3nnnn3n2)c(C(=O)O)cc1Cl [Compound 84]
22,> 20000,COC(=O)c1cc(F)c(F)cc1NC(=O)c1cc2ncccn2n1 [Compound 85]
23,> 1000,COc1cc(NC(=O)c2cc(NC(=O)OC(C)(C)C)c3nnnn3n2)c(C(=O)O)cc1F [Compound 86]
24,> 20000,COc1cc(NC(=O)c2nc3ccc(C(N)=O)nc3[nH]2)c(C(=O)O)cc1F [Compound 87]
25,> 20000,O=C(O)c1cc(Cl)c(Cl)cc1NC(=O)c1cccn2cnnc12 [Compound 88]
26,> 1000,COC(=O)c1cc(Cl)c(Cl)cc1NC(=O)c1cccn2cnnc12 [Compound 89]
27,> 1000,COC(=O)c1cc(Cl)c(Cl)cc1NC(=O)c1nc2n(n1)CCC(=O)N2 [Compound 91]

row,SMILES,EC50 [nM]
1,COC(=O)c1cc(C#N)c(Cl)cc1NC(=O)c1cc2[nH]cnc2cn1 [Compound 68],> 1000
2,COC(=O)c1cc(C#N)c(Cl)cc1NC(=O)c1cnc2nc[nH]c2c1 [Compound 72],> 20000
3,COC(=O)c1cc(C#N)c(Cl)cc1NC(=O)c1cc2[nH]ncc2cn1 [Compound 90],> 1000
